Measured values as given in article PMC12592486 (Scientific Reports, 2025).

What was measured:
α-glucosidase [1] = target: T1, α-glucosidase (Saccharomyces cerevisiae, UniProt P53341); assay: α-glucosidase inhibition assay; format: biochemical, S. cerevisiae
α-glucosidase [2] = target: T1, α-glucosidase; assay: Enzyme kinetics study; format: biochemical, S. cerevisiae

T1 sequence (P53341 whole entry): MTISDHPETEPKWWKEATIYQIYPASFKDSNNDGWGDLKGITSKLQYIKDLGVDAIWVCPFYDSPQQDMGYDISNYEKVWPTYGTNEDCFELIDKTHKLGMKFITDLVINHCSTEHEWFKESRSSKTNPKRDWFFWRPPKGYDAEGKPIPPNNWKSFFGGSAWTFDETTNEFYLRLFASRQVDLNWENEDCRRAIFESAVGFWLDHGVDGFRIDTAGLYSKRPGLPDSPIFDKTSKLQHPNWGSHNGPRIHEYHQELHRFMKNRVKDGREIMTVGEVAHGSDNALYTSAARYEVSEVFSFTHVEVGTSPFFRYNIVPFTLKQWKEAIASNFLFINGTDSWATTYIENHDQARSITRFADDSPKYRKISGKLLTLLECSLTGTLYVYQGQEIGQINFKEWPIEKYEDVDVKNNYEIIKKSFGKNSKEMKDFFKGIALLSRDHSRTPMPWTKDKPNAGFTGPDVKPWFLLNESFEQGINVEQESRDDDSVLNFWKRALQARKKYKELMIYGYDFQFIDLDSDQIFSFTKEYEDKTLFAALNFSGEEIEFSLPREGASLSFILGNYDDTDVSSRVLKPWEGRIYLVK

Row | SMILES | times/folds more active than the standard inhibitor acarbose (α-glucosidase [1]) | also measured
1 | COc1ccc(NC(=S)NN=Cc2cn(S(=O)(=O)c3ccc(Cl)cc3)c3ccccc23)cc1 [Compound 5b, 2-({1-[(4-Chlorophenyl)sulfonyl]-1H-indol-3-yl}methylene)-N-(4-methoxyphenyl)hydrazine-1-carbothioamide] | – | folds more active than 5k (α-glucosidase [1]; 4-methoxyphenyl vs 3-methoxyphenyl): 1.3 folds
2 | O=S(=O)(c1ccc(Cl)cc1)n1cc(C=NNC(=S)Nc2ccc(Br)cc2)c2ccccc21 [Compound 5s, N-(4-Bromophenyl)-2-({1-[(4-chlorophenyl)sulfonyl]-1H-indol-3-yl}methylene)hydrazine-1-carbothioamide] | more than 100 folds | –
3 | O=S(=O)(c1ccc(Cl)cc1)n1cc(C=NNC(=S)Nc2c(Cl)cccc2Cl)c2ccccc21 [Compound 5w, 2-({1-[(4-Chlorophenyl)sulfonyl]-1H-indol-3-yl}methylene)-N-(2,6-dichlorophenyl)hydrazine-1-carbothioamide] | more than 100 folds | –
4 | O=S(=O)(c1ccc(Cl)cc1)n1cc(C=NNC(=S)Nc2ccc(Br)cc2F)c2ccccc21 [Compound 5u, N-(4-Bromo-2-fluorophenyl)-2-({1-[(4-chlorophenyl)sulfonyl]-1H-indol-3-yl}methylene)hydrazine-1-carbothioamide] | 162 folds | Ki (α-glucosidase [2]): 3.57 ± 0.0084 µM; type of inhibition (α-glucosidase [2]; Km increases, Vmax constant): competitive type inhibitor; better inhibition of 5u compared to 5p (α-glucosidase [1]; most active vs least active inhibitor): about 11 folds
5 | CC(C)CNC(=S)NN=Cc1cn(S(=O)(=O)c2ccc(Cl)cc2)c2ccccc12 [Compound 5p, 2-({1-[(4-Chlorophenyl)sulfonyl]-1H-indol-3-yl}methylene)-N-isobutylhydrazine-1-carbothioamide] | fifteen | –
